According to article PMC7316778 (Nature Communications, 2020):
Values joined by “and” are separate entries in the source; they are usually repeats but may differ in a detail not shown here. Identical values can stand only once. Like-named read-outs stand apart in the source and are kept apart here.

Key:
FER^WT = FER^WT (Homo sapiens, UniProt P16591); experiment: In vitro TR-FRET kinase assay
BMX = molecular target: T1, BMX (Homo sapiens, UniProt P51813); experiment: SelectScreen kinase assay
T1 sequence (P51813 1-675): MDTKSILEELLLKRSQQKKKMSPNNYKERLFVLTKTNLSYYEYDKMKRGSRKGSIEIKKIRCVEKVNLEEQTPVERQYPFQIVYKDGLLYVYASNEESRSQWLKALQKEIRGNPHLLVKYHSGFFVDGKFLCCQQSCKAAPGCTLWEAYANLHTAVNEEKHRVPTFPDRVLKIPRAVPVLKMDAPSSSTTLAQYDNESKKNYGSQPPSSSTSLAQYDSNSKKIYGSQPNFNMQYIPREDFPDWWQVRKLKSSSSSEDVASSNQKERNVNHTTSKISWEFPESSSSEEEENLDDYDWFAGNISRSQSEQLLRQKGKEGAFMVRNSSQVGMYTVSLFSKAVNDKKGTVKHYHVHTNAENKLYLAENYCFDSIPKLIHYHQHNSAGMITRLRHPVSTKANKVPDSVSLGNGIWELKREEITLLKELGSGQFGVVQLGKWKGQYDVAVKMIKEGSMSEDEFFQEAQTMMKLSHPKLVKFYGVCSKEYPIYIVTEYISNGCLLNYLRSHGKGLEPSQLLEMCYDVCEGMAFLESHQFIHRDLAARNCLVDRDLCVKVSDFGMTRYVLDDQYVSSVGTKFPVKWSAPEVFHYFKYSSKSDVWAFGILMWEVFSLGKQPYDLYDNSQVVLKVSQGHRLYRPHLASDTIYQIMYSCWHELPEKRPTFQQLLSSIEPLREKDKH
Description: (§1) Selectivity profiling assays were performed by the Invitrogen SelectScreen™ Services. […] The concentration of ATP was selected to be equal to the KM, unless indicated otherwise.

KDR (VEGFR2) = KDR (VEGFR2) (Homo sapiens, UniProt P35968); experiment: SelectScreen kinase assay
Description: as §1

PHKG2 = PHKG2 (Homo sapiens, UniProt P15735); experiment: SelectScreen kinase assay
Description: as §1

[1] = molecular target: PIK3CA/PIK3R1 (p110a/p85a) (Homo sapiens, UniProt P42336); experiment: SelectScreen kinase assay; conditions: for Inhibition at 1 µM (%): PIK3CA/PIK3R1 (p110 alpha/p85 alpha), Adapta, ATP Km app
Description: as §1

MST4 = MST4 (Homo sapiens, UniProt Q9P289); experiment: SelectScreen kinase assay
Description: as §1

STK22B (TSSK2) = molecular target: T2, STK22B (TSSK2) (Homo sapiens, UniProt Q96PF2); experiment: SelectScreen kinase assay
T2 sequence (Q96PF2 1-358): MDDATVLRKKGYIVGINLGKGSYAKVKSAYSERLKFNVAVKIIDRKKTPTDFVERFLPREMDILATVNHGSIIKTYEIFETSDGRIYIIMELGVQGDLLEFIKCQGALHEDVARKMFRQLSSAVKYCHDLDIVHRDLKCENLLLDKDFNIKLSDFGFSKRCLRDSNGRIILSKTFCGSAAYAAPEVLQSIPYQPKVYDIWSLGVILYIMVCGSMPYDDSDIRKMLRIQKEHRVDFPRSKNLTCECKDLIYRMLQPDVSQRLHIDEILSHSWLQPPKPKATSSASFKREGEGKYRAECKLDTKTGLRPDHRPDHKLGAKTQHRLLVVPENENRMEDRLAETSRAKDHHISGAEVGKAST
Description: as §1

FES^WT = molecular target: T3, FES^WT (Homo sapiens, UniProt P07332); experiment: In vitro TR-FRET kinase assay; assay type: biochemical; conditions: TR-FRET assay, 5 µM ATP; n = 3; read-out: pIC50 FES^WT (converted)
T3 construct: human FES cDNA encoding residues 448–822 or human FER cDNA encoding residues 448–820 was amplified by PCR; made in house; host or cells: E. coli BL21(DE3), co-expressing YopH phosphatase
Description: All measurements were performed in triplicate.

LIMK2 = LIMK2 (Homo sapiens, UniProt P53671); experiment: SelectScreen kinase assay
Description: as §1

TAOK1 = TAOK1 (Homo sapiens, UniProt Q7L7X3); experiment: SelectScreen kinase assay
Description: as §1

GRK1 = molecular target: T4, GRK1 (Homo sapiens, UniProt Q15835); experiment: SelectScreen kinase assay
T4 sequence (Q15835 1-563): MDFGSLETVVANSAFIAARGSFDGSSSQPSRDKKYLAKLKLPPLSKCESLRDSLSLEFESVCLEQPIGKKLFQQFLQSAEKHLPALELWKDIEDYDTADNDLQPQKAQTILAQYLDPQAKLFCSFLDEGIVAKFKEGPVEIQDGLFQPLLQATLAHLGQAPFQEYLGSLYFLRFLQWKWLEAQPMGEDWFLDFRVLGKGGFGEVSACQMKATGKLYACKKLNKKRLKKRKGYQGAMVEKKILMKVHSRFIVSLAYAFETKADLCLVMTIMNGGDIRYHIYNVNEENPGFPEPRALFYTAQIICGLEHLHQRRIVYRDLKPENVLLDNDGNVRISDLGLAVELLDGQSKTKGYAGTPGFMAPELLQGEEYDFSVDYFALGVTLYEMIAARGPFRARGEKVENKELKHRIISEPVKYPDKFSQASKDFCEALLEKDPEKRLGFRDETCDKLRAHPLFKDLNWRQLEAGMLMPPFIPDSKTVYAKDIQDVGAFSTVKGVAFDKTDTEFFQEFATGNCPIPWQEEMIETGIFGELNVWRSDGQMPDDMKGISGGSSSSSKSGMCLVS
Description: as §1

CAMK2G (CaMKII gamma) = CAMK2G (CaMKII gamma) (Homo sapiens, UniProt Q13555); experiment: SelectScreen kinase assay
Description: as §1

[2] = 1 h, 1 μM WEL028, 1 h preincubation

Chain of KDR (VEGFR2) (P35968 20-1356, species assumed): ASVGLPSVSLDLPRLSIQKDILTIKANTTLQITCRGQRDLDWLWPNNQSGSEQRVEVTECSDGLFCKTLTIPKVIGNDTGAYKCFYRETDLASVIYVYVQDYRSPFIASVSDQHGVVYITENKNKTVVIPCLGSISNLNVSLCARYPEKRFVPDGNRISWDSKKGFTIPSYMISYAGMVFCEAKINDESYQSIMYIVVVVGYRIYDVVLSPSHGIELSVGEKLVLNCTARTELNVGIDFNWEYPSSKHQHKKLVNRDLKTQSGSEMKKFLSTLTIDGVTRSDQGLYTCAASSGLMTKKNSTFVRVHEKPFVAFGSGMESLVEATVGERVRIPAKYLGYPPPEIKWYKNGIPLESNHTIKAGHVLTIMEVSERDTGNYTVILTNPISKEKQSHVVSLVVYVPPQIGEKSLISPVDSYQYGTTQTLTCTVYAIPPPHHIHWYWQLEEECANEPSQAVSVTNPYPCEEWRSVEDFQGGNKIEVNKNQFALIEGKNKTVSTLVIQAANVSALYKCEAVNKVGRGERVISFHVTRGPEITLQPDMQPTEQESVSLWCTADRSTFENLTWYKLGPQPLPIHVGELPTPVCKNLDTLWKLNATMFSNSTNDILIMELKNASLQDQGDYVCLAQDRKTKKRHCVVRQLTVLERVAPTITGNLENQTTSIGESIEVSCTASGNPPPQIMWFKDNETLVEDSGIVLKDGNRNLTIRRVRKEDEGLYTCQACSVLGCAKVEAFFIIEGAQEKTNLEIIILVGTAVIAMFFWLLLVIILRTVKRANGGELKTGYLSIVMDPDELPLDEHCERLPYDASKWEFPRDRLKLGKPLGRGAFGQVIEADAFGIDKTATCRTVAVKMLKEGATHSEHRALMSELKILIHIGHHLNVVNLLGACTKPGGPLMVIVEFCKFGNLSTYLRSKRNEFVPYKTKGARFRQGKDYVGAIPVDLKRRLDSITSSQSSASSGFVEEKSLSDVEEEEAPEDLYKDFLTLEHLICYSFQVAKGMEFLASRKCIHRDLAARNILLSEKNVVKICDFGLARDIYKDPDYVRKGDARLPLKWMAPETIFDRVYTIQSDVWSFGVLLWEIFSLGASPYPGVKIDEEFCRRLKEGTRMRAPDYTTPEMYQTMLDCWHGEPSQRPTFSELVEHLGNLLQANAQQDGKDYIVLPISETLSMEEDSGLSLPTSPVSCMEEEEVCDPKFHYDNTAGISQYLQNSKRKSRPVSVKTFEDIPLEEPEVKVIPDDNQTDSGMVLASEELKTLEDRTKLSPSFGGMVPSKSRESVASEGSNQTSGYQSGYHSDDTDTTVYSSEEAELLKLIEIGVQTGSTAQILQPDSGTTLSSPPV
Chain of MST4 (Q9P289 whole entry): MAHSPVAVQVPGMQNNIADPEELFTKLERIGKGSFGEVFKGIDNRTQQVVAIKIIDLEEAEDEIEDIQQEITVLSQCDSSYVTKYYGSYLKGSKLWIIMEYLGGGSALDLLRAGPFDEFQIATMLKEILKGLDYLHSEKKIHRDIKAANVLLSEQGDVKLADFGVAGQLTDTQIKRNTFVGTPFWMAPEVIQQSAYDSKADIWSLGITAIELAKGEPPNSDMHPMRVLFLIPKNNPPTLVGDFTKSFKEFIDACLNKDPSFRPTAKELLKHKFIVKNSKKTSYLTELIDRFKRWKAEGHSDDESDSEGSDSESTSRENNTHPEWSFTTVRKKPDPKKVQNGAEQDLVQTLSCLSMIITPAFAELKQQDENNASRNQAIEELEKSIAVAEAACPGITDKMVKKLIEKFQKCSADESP
Chain of PIK3CA/PIK3R1 (p110a/p85a) (P42336 whole entry): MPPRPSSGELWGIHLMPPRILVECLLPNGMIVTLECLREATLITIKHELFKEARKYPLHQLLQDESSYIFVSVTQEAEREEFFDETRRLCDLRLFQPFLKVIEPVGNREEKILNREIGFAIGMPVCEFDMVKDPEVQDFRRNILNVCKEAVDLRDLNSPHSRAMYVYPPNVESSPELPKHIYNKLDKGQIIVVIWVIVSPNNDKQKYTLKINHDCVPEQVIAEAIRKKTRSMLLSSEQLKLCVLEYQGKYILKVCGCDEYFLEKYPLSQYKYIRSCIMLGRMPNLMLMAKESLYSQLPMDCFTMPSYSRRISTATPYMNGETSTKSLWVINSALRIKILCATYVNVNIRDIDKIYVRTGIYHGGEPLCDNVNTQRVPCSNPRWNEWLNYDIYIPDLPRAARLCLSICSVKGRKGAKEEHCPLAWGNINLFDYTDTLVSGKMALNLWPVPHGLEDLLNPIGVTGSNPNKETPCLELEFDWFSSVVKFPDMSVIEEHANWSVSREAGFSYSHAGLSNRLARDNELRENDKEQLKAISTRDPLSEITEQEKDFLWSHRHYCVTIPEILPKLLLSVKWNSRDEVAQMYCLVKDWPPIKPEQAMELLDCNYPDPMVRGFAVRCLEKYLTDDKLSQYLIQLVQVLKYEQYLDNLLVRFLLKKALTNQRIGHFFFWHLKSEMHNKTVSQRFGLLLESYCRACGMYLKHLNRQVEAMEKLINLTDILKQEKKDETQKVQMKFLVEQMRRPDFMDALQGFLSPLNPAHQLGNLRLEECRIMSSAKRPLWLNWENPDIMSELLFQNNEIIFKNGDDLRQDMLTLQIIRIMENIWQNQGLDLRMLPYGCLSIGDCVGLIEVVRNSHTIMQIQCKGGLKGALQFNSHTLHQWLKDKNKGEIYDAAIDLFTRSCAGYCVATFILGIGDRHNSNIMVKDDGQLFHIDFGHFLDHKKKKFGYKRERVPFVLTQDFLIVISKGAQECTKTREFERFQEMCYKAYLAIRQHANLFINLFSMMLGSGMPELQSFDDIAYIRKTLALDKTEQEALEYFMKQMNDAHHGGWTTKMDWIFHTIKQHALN
Chain of PIK3CA/PIK3R1 (p110a/p85a) (P27986 whole entry partner): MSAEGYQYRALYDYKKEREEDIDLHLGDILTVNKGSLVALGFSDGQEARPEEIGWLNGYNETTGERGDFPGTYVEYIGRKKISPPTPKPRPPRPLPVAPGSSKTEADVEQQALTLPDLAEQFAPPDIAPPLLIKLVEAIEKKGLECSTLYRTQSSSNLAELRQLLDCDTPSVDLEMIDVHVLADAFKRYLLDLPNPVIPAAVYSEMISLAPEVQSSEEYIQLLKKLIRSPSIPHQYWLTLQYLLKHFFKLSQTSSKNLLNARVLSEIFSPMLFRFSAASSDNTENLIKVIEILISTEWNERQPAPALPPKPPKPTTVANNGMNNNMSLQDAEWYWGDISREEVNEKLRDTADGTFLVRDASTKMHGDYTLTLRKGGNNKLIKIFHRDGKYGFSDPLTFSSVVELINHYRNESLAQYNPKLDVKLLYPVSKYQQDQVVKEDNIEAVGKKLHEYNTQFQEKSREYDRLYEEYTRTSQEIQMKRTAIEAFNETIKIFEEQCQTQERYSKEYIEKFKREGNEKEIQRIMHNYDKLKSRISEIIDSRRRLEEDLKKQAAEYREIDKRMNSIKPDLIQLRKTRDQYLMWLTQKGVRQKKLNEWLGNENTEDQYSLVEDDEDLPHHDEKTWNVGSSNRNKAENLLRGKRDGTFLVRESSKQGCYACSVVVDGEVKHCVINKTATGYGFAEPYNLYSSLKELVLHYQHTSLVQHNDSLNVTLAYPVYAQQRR
Chain of LIMK2 (P53671 whole entry): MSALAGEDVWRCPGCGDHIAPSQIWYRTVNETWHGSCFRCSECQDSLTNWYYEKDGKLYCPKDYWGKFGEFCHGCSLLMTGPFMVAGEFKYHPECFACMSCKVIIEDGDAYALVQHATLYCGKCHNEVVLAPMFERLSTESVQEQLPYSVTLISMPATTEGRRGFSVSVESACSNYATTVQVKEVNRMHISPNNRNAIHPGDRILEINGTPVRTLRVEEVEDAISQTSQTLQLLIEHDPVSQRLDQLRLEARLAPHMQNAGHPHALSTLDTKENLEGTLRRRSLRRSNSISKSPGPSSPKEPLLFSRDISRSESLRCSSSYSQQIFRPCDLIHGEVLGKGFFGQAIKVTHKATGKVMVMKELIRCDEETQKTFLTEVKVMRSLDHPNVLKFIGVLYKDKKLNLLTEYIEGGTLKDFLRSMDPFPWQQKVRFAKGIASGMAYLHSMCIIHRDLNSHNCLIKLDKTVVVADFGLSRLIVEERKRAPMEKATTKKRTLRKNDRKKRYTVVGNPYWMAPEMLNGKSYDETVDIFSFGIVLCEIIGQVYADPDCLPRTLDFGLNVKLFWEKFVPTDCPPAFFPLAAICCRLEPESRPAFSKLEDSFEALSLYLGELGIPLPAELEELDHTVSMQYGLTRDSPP
Chain of CAMK2G (CaMKII gamma) (Q13555 whole entry): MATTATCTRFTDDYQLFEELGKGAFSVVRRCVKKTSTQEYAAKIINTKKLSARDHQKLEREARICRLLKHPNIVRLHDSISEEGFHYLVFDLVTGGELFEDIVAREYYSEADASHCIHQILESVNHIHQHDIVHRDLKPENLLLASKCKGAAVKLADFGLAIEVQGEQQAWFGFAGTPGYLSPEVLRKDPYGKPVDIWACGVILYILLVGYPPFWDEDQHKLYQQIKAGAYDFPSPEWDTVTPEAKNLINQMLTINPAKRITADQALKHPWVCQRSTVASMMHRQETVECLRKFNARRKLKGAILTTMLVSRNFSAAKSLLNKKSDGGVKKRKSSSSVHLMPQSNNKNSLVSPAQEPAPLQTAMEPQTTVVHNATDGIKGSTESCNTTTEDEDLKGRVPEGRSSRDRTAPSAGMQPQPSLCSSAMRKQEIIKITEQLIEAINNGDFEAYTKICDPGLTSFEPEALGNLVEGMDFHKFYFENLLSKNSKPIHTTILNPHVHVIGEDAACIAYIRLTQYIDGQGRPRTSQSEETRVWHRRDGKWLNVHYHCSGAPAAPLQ

C#CCOc1ccc(Nc2ncc(Cl)c(Nc3ccccc3NC(=O)C=C)n2)c(OC)c1 [Compound 6]
IC50 (FER^WT): 501 nM
inhibition at 1 µM (BMX; [2]): 16%
Inhibition at 1 µM (%) (BMX; BMX, 1 µM, ZLYTE, ATP Km app, listed as WEL028, 1 µM): 18%
inhibition at 1 µM (BMX; read-out: Inhibition at 1 µM (%), BMX, 1 µM, ZLYTE, ATP Km app): 14%
IC50 (KDR (VEGFR2)): 631 nM
inhibition at 1 µM (KDR (VEGFR2); [2]): 67%
inhibition at 10 µM (KDR (VEGFR2); 1 h, log[inhibitor] (M) -5.00, ZLYTE, ATP Km app): 101%
inhibition at 3.31 µM (KDR (VEGFR2); 1 h, log[inhibitor] (M) -5.48, ZLYTE, ATP Km app): 99%
inhibition at 1.12 µM (KDR (VEGFR2); 1 h, log[inhibitor] (M) -5.95, ZLYTE, ATP Km app): 70%
inhibition at 0.372 µM (KDR (VEGFR2); 1 h, log[inhibitor] (M) -6.43, ZLYTE, ATP Km app): 37%
inhibition at 0.123 µM (KDR (VEGFR2); 1 h, log[inhibitor] (M) -6.91, ZLYTE, ATP Km app): 26%
inhibition at 0.04074 µM (KDR (VEGFR2); 1 h, log[inhibitor] (M) -7.39, ZLYTE, ATP Km app): 16%
inhibition at 0.00151 µM (KDR (VEGFR2); 1 h, log[inhibitor] (M) -8.82, ZLYTE, ATP Km app): 17%
inhibition at 0.00049 µM (KDR (VEGFR2); 1 h, log[inhibitor] (M) -9.31, ZLYTE, ATP Km app): 17%
Inhibition at 1 µM (%) (KDR (VEGFR2); KDR (VEGFR2), 1 µM, ZLYTE, ATP Km app, listed as WEL028, 1 µM): 65%
inhibition at 1 µM (KDR (VEGFR2); read-out: Inhibition at 1 µM (%), KDR (VEGFR2), 1 µM, ZLYTE, ATP Km app): 69%
inhibition at 1 µM (PHKG2; [2]): 0%
Inhibition at 1 µM (%) (PHKG2; PHKG2, 1 µM, ZLYTE, ATP Km app): 11%
inhibition at 1 µM [1, 2]: 14%
Inhibition at 1 µM (%) [1]: 19%
Inhibition at 1 µM (%) ([1]; listed as WEL028, 1 µM): 9%
inhibition at 1 µM (MST4; [2]): 19%
Inhibition at 1 µM (%) (MST4; MST4, 1 µM, ZLYTE, ATP Km app, listed as WEL028, 1 µM): 18%
inhibition at 1 µM (MST4; read-out: Inhibition at 1 µM (%), MST4, 1 µM, ZLYTE, ATP Km app): 21%
Inhibition at 1 µM (%) (STK22B (TSSK2); 1 µM, ZLYTE, ATP Km app, listed as WEL028, 1 µM): 17%
inhibition at 1 µM (STK22B (TSSK2); [2]): 18%
inhibition at 1 µM (STK22B (TSSK2); read-out: Inhibition at 1 µM (%), 1 µM, ZLYTE, ATP Km app): 18%
IC50 (FES^WT): > 3000 nM
inhibition at 1 µM (LIMK2; [2]): -2%
Inhibition at 1 µM (%) (LIMK2; LIMK2, 1 µM, LanthaScreen Binding, listed as WEL028, 1 µM): -5% and 1%
inhibition at 1 µM (TAOK1; [2]): 23%
inhibition at 1 µM (TAOK1; read-out: Inhibition at 1 µM (%), 1 µM, LanthaScreen Binding): 24%
inhibition at 1 µM (GRK1; [2]): 8%
Inhibition at 1 µM (%) (GRK1; GRK1, 1 µM, LanthaScreen Binding, listed as WEL028, 1 µM): 7%
inhibition at 1 µM (GRK1; read-out: Inhibition at 1 µM (%), GRK1, 1 µM, LanthaScreen Binding): 9%
inhibition at 1 µM (CAMK2G (CaMKII gamma); [2]): 3%
Inhibition at 1 µM (%) (CAMK2G (CaMKII gamma); CAMK2G (CaMKII gamma), 1 µM, LanthaScreen Binding): 13%
